{"source": "patent US11702422B2", "about": "“Imidazopyridazines as modulators of IL-17” (Janssen Pharmaceutica NV, priority 2020, dated 2023)", "key": {"[1]": {"biological_target": "IL-17A(FLAG-Tagged): IL-17RA(His-Tagged) (Homo sapiens, UniProt Q16552, K93Q)", "sequence (Q16552 with tags, fused parts or gaps K93Q)": "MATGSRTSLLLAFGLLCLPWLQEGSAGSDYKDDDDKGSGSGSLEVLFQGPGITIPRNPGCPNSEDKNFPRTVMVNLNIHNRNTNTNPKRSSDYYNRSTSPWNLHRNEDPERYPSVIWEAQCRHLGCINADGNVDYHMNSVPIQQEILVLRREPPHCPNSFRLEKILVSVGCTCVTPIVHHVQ", "assay": "IL-17A(FLAG-Tagged): IL-17RA(His-Tagged) Binding Disruption Eu-HTRF Assay", "settings": "IL-17A/IL-17RA binding disruption, simple average if tested more than once", "summary_of_the_method": "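IC50 comes from a one-site competition fit of the HTRF 665/620 nm ratio. Compound dilutions (2-fold, 22 points) were held 1 h rt with FLAG-tagged IL-17A dimer, then His-tagged IL-17RA plus Eu-cryptate anti-FLAG and D2 anti-His antibodies were added for 2 h rt.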"}, "[2]": {"system": "IL-17A-induced G-CSF production in human normal keratinocyte (NHK)", "assay": "NHK Assay: IL-17A-induced G-CSF production in human normal keratinocytes", "type": "cell-based", "settings": "adult normal human keratinocytes, IL-17A 5 ng/mL, 24 h, simple average if tested more than once", "summary_of_the_method": "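Adult normal human keratinocytes were seeded at 3000-4000 cells/well. Recombinant human IL-17A was pre-incubated 1 h at rt with titrated compound, then added to cells (final 5 ng/mL IL-17A, 0.2% DMSO, 5% FBS) for 24 h at 37° C. Supernatant G-CSF was measured by HTRF against a standard curve to give IC50.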"}}}
{"smiles": "N#CC1(C(NC(=O)CC2CC(F)(F)C2)c2cnn3cc([C@@H](NC(=O)c4nonc4OCC(F)F)C4CCC(F)(F)CC4)nc3c2)CC1", "note": "(single isomer, unassigned) [Example 425, N—((S)-(7-((S*)-(1-Cyanocyclopropyl)(2-(3,3-difluorocyclobutyl)acetamido)methyl)imidazo[1,2-b]pyridazin-2-yl)(4,4-difluorocyclohexyl)methyl)-4-(2,2-difluoroethoxy)-1,2,5-oxadiazole-3-carboxamide]", "values": [{"measurement": "IC50", "setting": "[1]", "result": 99, "unit": "nM"}, {"measurement": "IC50", "setting": "[2]", "result": 20, "unit": "nM"}]}
{"smiles": "CC(C)n1nccc1C(=O)N[C@H](c1cn2ncc(C(NC(=O)CC3CC(F)(F)C3)C3(C#N)CC3)cc2n1)C1CCC(F)(F)CC1", "note": "(single isomer, unassigned) [Example 426, N—((S)-(7-((S*)-(1-Cyanocyclopropyl)(2-(3,3-difluorocyclobutyl)acetamido)methyl)imidazo[1,2-b]pyridazin-2-yl)(4,4-difluorocyclohexyl)methyl)-1-isopropyl-1H-pyrazole-5-carboxamide]", "values": [{"measurement": "IC50", "setting": "[1]", "result": 340, "unit": "nM"}, {"measurement": "IC50", "setting": "[2]", "result": 100, "unit": "nM"}]}
{"smiles": "Cc1nonc1C(=O)N[C@H](c1cn2ncc(C(NC(=O)CC3(C(F)(F)F)CC3)C3(C#N)CC3)cc2n1)C1CCC(F)(F)CC1", "note": "(single isomer, unassigned) [Example 427, N—((S)-(7-((S*)-(1-Cyanocyclopropyl)(2-(1-(trifluoromethyl)cyclopropyl)acetamido)methyl)imidazo[1,2-b]pyridazin-2-yl)(4,4-difluorocyclohexyl)methyl)-4-methyl-1,2,5-oxadiazole-3-carboxamide]", "values": [{"measurement": "IC50", "setting": "[1]", "result": 100, "unit": "nM"}, {"measurement": "IC50", "setting": "[2]", "result": 370, "unit": "nM"}]}
{"smiles": "CC(C)n1nccc1C(=O)N[C@H](c1cn2ncc(C(NC(=O)CC3(C(F)(F)F)CC3)C3(C#N)CC3)cc2n1)C1CCC(F)(F)CC1", "note": "(single isomer, unassigned) [Example 428, N—((S)-(7-((S*)-(1-Cyanocyclopropyl)(2-(1-(trifluoromethyl)cyclopropyl)acetamido)methyl)imidazo[1,2-b]pyridazin-2-yl)(4,4-difluorocyclohexyl)methyl)-1-isopropyl-1H-pyrazole-5-carboxamide]", "values": [{"measurement": "IC50", "setting": "[1]", "result": 370, "unit": "nM"}, {"measurement": "IC50", "setting": "[2]", "result": 120, "unit": "nM"}]}
{"smiles": "N#CC1(C(NC(=O)CC2CC(F)(F)C2)c2cnn3cc([C@@H](NC(=O)c4nonc4C4CC4)C4CCC(F)(F)CC4)nc3c2)CC1", "note": "(single isomer, unassigned) [Example 429, N—((S)-(7-((R*)-(1-Cyanocyclopropyl)(2-(3,3-difluorocyclobutyl)acetamido)methyl)imidazo[1,2-b]pyridazin-2-yl)(4,4-difluorocyclohexyl)methyl)-4-cyclopropyl-1,2,5-oxadiazole-3-carboxamide]", "values": [{"measurement": "IC50", "setting": "[1]", "result": 2000, "unit": "nM"}, {"measurement": "IC50", "setting": "[2]", "result": "> 20000", "unit": "nM"}]}
{"smiles": "N#CC1(C(NC(=O)CC2CC(F)(F)C2)c2cnn3cc([C@@H](NC(=O)c4nonc4OCC(F)F)C4CCC(F)(F)CC4)nc3c2)CC1", "note": "(single isomer, unassigned) [Example 430, N—((S)-(7-((R*)-(1-Cyanocyclopropyl)(2-(3,3-difluorocyclobutyl)acetamido)methyl)imidazo[1,2-b]pyridazin-2-yl)(4,4-difluorocyclohexyl)methyl)-4-(2,2-difluoroethoxy)-1,2,5-oxadiazole-3-carboxamide]", "values": [{"measurement": "IC50", "setting": "[1]", "result": 1600, "unit": "nM"}, {"measurement": "IC50", "setting": "[2]", "result": 12000, "unit": "nM"}]}
{"smiles": "CC(C)n1nccc1C(=O)N[C@H](c1cn2ncc(C(NC(=O)CC3CC(F)(F)C3)C3(C#N)CC3)cc2n1)C1CCC(F)(F)CC1", "note": "(single isomer, unassigned) [Example 431, N—((S)-(7-((R*)-(1-Cyanocyclopropyl)(2-(3,3-difluorocyclobutyl)acetamido)methyl)imidazo[1,2-b]pyridazin-2-yl)(4,4-difluorocyclohexyl)methyl)-1-isopropyl-1H-pyrazole-5-carboxamide]", "values": [{"measurement": "IC50", "setting": "[1]", "result": 3800, "unit": "nM"}, {"measurement": "IC50", "setting": "[2]", "result": "> 20000", "unit": "nM"}]}
{"smiles": "Cc1nonc1C(=O)N[C@H](c1cn2ncc(C(NC(=O)CC3(C(F)(F)F)CC3)C3(C#N)CC3)cc2n1)C1CCC(F)(F)CC1", "note": "(single isomer, unassigned) [Example 432, N—((S)-(7-((R*)-(1-Cyanocyclopropyl)(2-(1-(trifluoromethyl)cyclopropyl)acetamido)methyl)imidazo[1,2-b]pyridazin-2-yl)(4,4-difluorocyclohexyl)methyl)-4-methyl-1,2,5-oxadiazole-3-carboxamide]", "values": [{"measurement": "IC50", "setting": "[1]", "result": 3700, "unit": "nM"}, {"measurement": "IC50", "setting": "[2]", "result": "> 20000", "unit": "nM"}]}
{"smiles": "N#CC1(C(NC(=O)CC2(C(F)(F)F)CC2)c2cnn3cc([C@@H](NC(=O)c4nonc4C4CC4)C4CCC(F)(F)CC4)nc3c2)CC1", "note": "(single isomer, unassigned) [Example 433, N—((S)-(7-((R*)-(1-Cyanocyclopropyl)(2-(1-(trifluoromethyl)cyclopropyl)acetamido)methyl)imidazo[1,2-b]pyridazin-2-yl)(4,4-difluorocyclohexyl)methyl)-4-cyclopropyl-1,2,5-oxadiazole-3-carboxamide]", "values": [{"measurement": "IC50", "setting": "[1]", "result": 1300, "unit": "nM"}, {"measurement": "IC50", "setting": "[2]; Homo sapiens, Keratinocyte", "result": "> 20000", "unit": "nM"}]}
{"smiles": "CC(C)n1nccc1C(=O)N[C@H](c1cn2ncc(C(NC(=O)CC3(C(F)(F)F)CC3)C3(C#N)CC3)cc2n1)C1CCC(F)(F)CC1", "note": "(single isomer, unassigned) [Example 434, N—((S)-(7-((R*)-(1-Cyanocyclopropyl)(2-(1-(trifluoromethyl)cyclopropyl)acetamido)methyl)imidazo[1,2-b]pyridazin-2-yl)(4,4-difluorocyclohexyl)methyl)-1-isopropyl-1H-pyrazole-5-carboxamide]", "values": [{"measurement": "IC50", "setting": "[1]", "result": 3300, "unit": "nM"}, {"measurement": "IC50", "setting": "[2]", "result": "> 20000", "unit": "nM"}]}
{"smiles": "Cc1nonc1C(=O)N[C@H](c1cn2ncc(C(NC(=O)C(F)(F)CC3CC3)C3(C#N)CC3)cc2n1)C1CCC(F)(F)CC1", "note": "(single isomer, unassigned) [Example 435, N—((S)-(7-((R*)-(1-Cyanocyclopropyl)(3-cyclopropyl-2,2-difluoropropanamido)methyl)imidazo[1,2-b]pyridazin-2-yl)(4,4-difluorocyclohexyl)methyl)-4-methyl-1,2,5-oxadiazole-3-carboxamide]", "values": [{"measurement": "IC50", "setting": "[1]", "result": 3800, "unit": "nM"}, {"measurement": "IC50", "setting": "[2]; Homo sapiens, Keratinocyte", "result": "> 20000", "unit": "nM"}]}
{"smiles": "N#CC1(C(NC(=O)C(F)(F)CC2CC2)c2cnn3cc([C@@H](NC(=O)c4nonc4C4CC4)C4CCC(F)(F)CC4)nc3c2)CC1", "note": "(single isomer, unassigned) [Example 436, N—((S)-(7-((R*)-(1-Cyanocyclopropyl)(3-cyclopropyl-2,2-difluoropropanamido)methyl)imidazo[1,2-b]pyridazin-2-yl)(4,4-difluorocyclohexyl)methyl)-4-cyclopropyl-1,2,5-oxadiazole-3-carboxamide]", "values": [{"measurement": "IC50", "setting": "[1]", "result": 1300, "unit": "nM"}, {"measurement": "IC50", "setting": "[2]; Homo sapiens, Keratinocyte", "result": "> 20000", "unit": "nM"}]}
{"smiles": "CC(C)n1nccc1C(=O)N[C@H](c1cn2ncc(C(NC(=O)C(F)(F)CC3CC3)C3(C#N)CC3)cc2n1)C1CCC(F)(F)CC1", "note": "(single isomer, unassigned) [Example 437, N—((S)-(7-((R*)-(1-Cyanocyclopropyl)(3-cyclopropyl-2,2-difluoropropanamido)methyl)imidazo[1,2-b]pyridazin-2-yl)(4,4-difluorocyclohexyl)methyl)-1-isopropyl-1H-pyrazole-5-carboxamide]", "values": [{"measurement": "IC50", "setting": "[1]", "result": 3800, "unit": "nM"}, {"measurement": "IC50", "setting": "[2]; Homo sapiens, Keratinocyte", "result": "> 20000", "unit": "nM"}]}
{"smiles": "Cc1nonc1C(=O)N[C@H](c1cn2ncc(C(CC3CCC3)NC(=O)CC3CC(F)(F)C3)cc2n1)C1CCC(F)(F)CC1", "note": "(single isomer, unassigned) [Example 438, N—((S)-(7-((R*)-2-Cyclobutyl-1-(2-(3,3-difluorocyclobutyl)acetamido)ethyl)imidazo[1,2-b]pyridazin-2-yl)(4,4-difluorocyclohexyl)methyl)-4-methyl-1,2,5-oxadiazole-3-carboxamide]", "values": [{"measurement": "IC50", "setting": "[1]", "result": 470, "unit": "nM"}, {"measurement": "IC50", "setting": "[2]", "result": 8000, "unit": "nM"}]}
{"smiles": "Cc1nonc1C(=O)N[C@H](c1cn2ncc(C(CC3CCC3)NC(=O)CC3CC(F)(F)C3)cc2n1)C1CCC(F)(F)CC1", "note": "(single isomer, unassigned) [Example 439, N—((S)-(7-((S*)-2-Cyclobutyl-1-(2-(3,3-difluorocyclobutyl)acetamido)ethyl)imidazo[1,2-b]pyridazin-2-yl)(4,4-difluorocyclohexyl)methyl)-4-methyl-1,2,5-oxadiazole-3-carboxamide]", "values": [{"measurement": "IC50", "setting": "[1]", "result": 99, "unit": "nM"}, {"measurement": "IC50", "setting": "[2]", "result": 150, "unit": "nM"}]}
{"smiles": "CC(C)n1nccc1C(=O)N[C@H](c1cn2ncc(C(CC3CCC3)NC(=O)CC3CC(F)(F)C3)cc2n1)C1CCC(F)(F)CC1", "note": "(single isomer, unassigned) [Example 440, N—((S)-(7-((R*)-2-Cyclobutyl-1-(2-(3,3-difluorocyclobutyl)acetamido)ethyl)imidazo[1,2-b]pyridazin-2-yl)(4,4-difluorocyclohexyl)methyl)-1-isopropyl-1H-pyrazole-5-carboxamide]", "values": [{"measurement": "IC50", "setting": "[1]", "result": 92, "unit": "nM"}, {"measurement": "IC50", "setting": "[2]", "result": 59, "unit": "nM"}]}
{"smiles": "CC(C)n1nccc1C(=O)N[C@H](c1cn2ncc(C(NC(=O)CC3CC(F)(F)C3)C(C)(C)O)cc2n1)C1CCC(F)(F)CC1", "note": "(single isomer, unassigned) [Example 444, N—((S)-(7-((R*)-1-(2-(3,3-Difluorocyclobutyl)acetamido)-2-hydroxy-2-methylpropyl)imidazo[1,2-b]pyridazin-2-yl)(4,4-difluorocyclohexyl)methyl)-1-isopropyl-1H-pyrazole-5-carboxamide]", "values": [{"measurement": "IC50", "setting": "[1]", "result": 2300, "unit": "nM"}, {"measurement": "IC50", "setting": "[2]", "result": 11000, "unit": "nM"}]}
{"smiles": "Cc1nonc1C(=O)N[C@H](c1cn2ncc(C(NC(=O)CC3CC(F)(F)C3)C(C)(C)O)cc2n1)C1CCC(F)(F)CC1", "note": "(single isomer, unassigned) [Example 445, N—((S)-(7-((R*)-1-(2-(3,3-Difluorocyclobutyl)acetamido)-2-hydroxy-2-methylpropyl)imidazo[1,2-b]pyridazin-2-yl)(4,4-difluorocyclohexyl)methyl)-4-methyl-1,2,5-oxadiazole-3-carboxamide]", "values": [{"measurement": "IC50", "setting": "[1]", "result": 5800, "unit": "nM"}, {"measurement": "IC50", "setting": "[2]", "result": "> 20000", "unit": "nM"}]}
